Test results as given in the supplement of paper PMC10307832.

Compound: CS(=O)(=O)CCNCc1ccc(-c2ccc3ncnc(Nc4ccc(OCc5cccc(F)c5)c(Cl)c4)c3c2)o1 [Lapatinib]
Assay: relative viability (nuclei count vs DMSO), 5 days (fraction); higher = more cells survive
In short: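 A plate was accepted only when its control CV was below 25% and the cells had doubled at least once. Viability is defined from nuclear counts as treated wells divided by vehicle wells, with the median taken across plates. That median covers lung cancer cell lines grown in 1536-well plates, dosed by pinning at five √10-spaced library-drug concentrations, and counted in MetaXpress from 4× Hoechst images after 5 days.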

Row | Cell Line | relative viability (0.02 µM) | relative viability (0.06325 µM) | relative viability (0.2 µM) | relative viability (0.6325 µM) | relative viability (2 µM) | relative viability (2 µM, anchor plate)
1 | 201T | 0.713 | 0.802 | 0.963 | 0.979 | 0.887 | 1.04
2 | A549 | 0.982 | 0.875 | 0.867 | 0.957 | 0.861 | 0.993
3 | A-427 |  | 0.978 | 1 | 0.954 | 0.963 | 1.05
4 | ABC-1 | 0.721 | 0.793 | 0.939 | 1.04 | 0.912 | 1.18
5 | BEN | 0.793 | 0.907 | 0.935 | 1 | 0.962 | 0.74
6 | CAL-12T | 0.763 | 0.978 | 0.909 | 0.776 | 0.678 | 0.681
7 | COR-L23 | 0.978 | 1 | 1.11 | 0.919 | 1.02 | 0.934
8 | COR-L 105 | 0.828 | 0.8 | 0.857 | 0.598 | 0.381 | 0.367
9 | Calu-6 | 0.972 | 0.971 | 1.02 | 1.03 | 0.926 | 1.04
10 | ChaGo-K-1 | 0.789 | 0.943 | 0.945 | 1 | 0.797 | 
11 | EBC-1 | 0.993 | 0.979 | 0.945 | 0.971 |  | 
12 | EKVX | 0.645 | 0.755 | 0.943 | 0.811 | 0.336 | 0.216
13 | EMC-BAC-2 |  | 0.8 | 0.734 | 0.985 | 1.04 | 0.917
14 | EPLC-272H |  | 0.733 | 0.959 | 1 | 0.783 | 0.993
15 | H3255 | 0.908 | 0.936 | 0.938 | 0.889 | 0.489 | 0.25
16 | HARA | 0.52 | 0.749 | 0.943 | 0.93 | 0.755 | 0.77
17 | HCC-15 |  | 0.847 | 1.06 | 1.01 | 0.919 | 0.836
18 | HCC-44 | 0.602 | 0.997 | 0.983 | 1.03 | 0.893 | 1.02
19 | HCC-78 |  | 0.734 | 0.922 | 0.935 | 0.793 | 0.801
20 | HCC-366 |  | 1.02 | 0.981 | 1.02 | 0.99 | 1.02
21 | HCC-827 | 0.91 | 0.983 | 1.05 | 1 |  | 
22 | HOP-62 | 0.7 | 1.04 | 1.01 | 1.02 | 1.01 | 1.04
23 | IA-LM | 0.816 | 0.977 | 1.04 | 0.902 | 0.983 | 0.848
24 | LC-2-ad |  | 0.895 | 0.984 | 0.983 | 0.896 | 0.967
25 | LCLC-97TM1 |  |  | 1.08 | 1 | 1.03 | 1.01
26 | LCLC-103H | 0.779 | 0.951 | 0.997 | 1.02 | 0.975 | 
27 | LK-2 | 0.852 |  | 0.914 | 1.13 | 1.11 | 1.02

Row | Cell Line | relative viability (0.02 µM) | relative viability (0.06325 µM) | relative viability (0.2 µM) | relative viability (0.6325 µM) | relative viability (2 µM) | relative viability (2 µM, anchor plate)
28 | LOU-NH91 | 0.569 | 0.785 | 0.844 | 0.844 | 0.74 | 0.799
29 | LU99A | 0.883 | 0.757 | 0.852 | 0.871 | 0.897 | 1.03
30 | LXF-289 | 0.923 | 0.993 | 0.96 | 0.957 | 0.869 | 0.915
31 | NCI-H23 |  |  | 1.02 | 1.06 | 0.938 | 1.11
32 | NCI-H322M | 0.886 | 0.717 | 0.896 | 0.882 | 0.733 | 0.598
33 | NCI-H358 | 0.693 | 0.478 | 0.611 | 0.569 | 0.335 | 0.474
34 | NCI-H441 |  | 0.735 | 0.995 | 1.09 | 1.36 | 
35 | NCI-H460 | 0.952 | 0.984 | 0.969 | 0.969 | 0.868 | 0.988
36 | NCI-H520 | 0.987 | 0.93 | 1.03 | 1.09 | 0.998 | 0.848
37 | NCI-H522 |  | 0.746 | 0.855 | 1.01 | 0.791 | 
38 | NCI-H596 |  | 0.939 | 0.967 | 1.14 | 0.919 | 1.03
39 | NCI-H647 | 0.776 | 0.897 | 0.767 | 1.02 | 0.806 | 1.06
40 | NCI-H650 |  | 0.912 | 0.919 | 1.04 | 0.831 | 0.926
41 | NCI-H661 | 0.987 | 0.919 | 0.957 | 0.822 | 0.705 | 0.52
42 | NCI-H727 | 0.839 |  | 1.11 | 0.778 | 0.776 | 0.796
43 | NCI-H838 | 0.954 | 0.82 | 0.97 | 0.947 | 0.897 | 0.992
44 | NCI-H1299 | 0.985 | 1.02 | 1 | 0.99 | 1.01 | 0.95
45 | NCI-H1355 |  | 0.828 | 0.938 | 0.972 | 0.746 | 1
46 | NCI-H1395 |  | 0.896 | 1.02 | 0.919 | 0.742 | 1.05
47 | NCI-H1437 | 0.919 | 0.988 | 0.987 | 0.914 | 0.918 | 0.794
48 | NCI-H1563 | 1.04 | 0.832 | 0.936 | 0.909 | 0.88 | 0.977
49 | NCI-H1623 | 0.856 | 0.649 | 0.576 | 0.728 | 0.328 | 
50 | NCI-H1648 | 0.671 | 0.667 | 0.548 | 0.625 | 0.392 | 
51 | NCI-H1650 | 0.809 | 0.73 | 0.851 | 0.834 | 0.737 | 0.805
52 | NCI-H1651 | 0.942 | 0.811 | 0.994 | 0.926 | 0.989 | 0.827
53 | NCI-H1666 | 0.936 | 0.871 | 0.89 | 0.862 | 0.708 | 0.702
54 | NCI-H1703 | 0.907 | 0.895 | 0.944 | 1.01 | 0.825 | 1.05

Row | Cell Line | relative viability (0.02 µM) | relative viability (0.06325 µM) | relative viability (0.2 µM) | relative viability (0.6325 µM) | relative viability (2 µM) | relative viability (2 µM, anchor plate)
55 | NCI-H1734 |  | 0.794 | 1.01 | 1.07 | 0.943 | 1.07
56 | NCI-H1755 | 1.01 | 0.914 | 0.936 | 0.967 | 0.981 | 1.03
57 | NCI-H1792 |  |  | 0.928 | 1 | 0.762 | 0.919
58 | NCI-H1793 |  | 0.642 | 0.732 | 0.803 | 0.544 | 0.714
59 | NCI-H1915 |  | 0.975 | 1 | 0.999 | 0.977 | 0.996
60 | NCI-H1944 | 0.781 | 0.658 | 0.964 | 0.853 | 0.757 | 0.846
61 | NCI-H1975 | 0.968 | 0.8 | 0.904 | 0.936 | 0.77 | 0.946
62 | NCI-H1993 | 0.903 |  | 0.928 | 0.873 | 0.745 | 0.837
63 | NCI-H2009 | 1.01 | 0.978 | 1.02 | 1.01 | 1 | 0.84
64 | NCI-H2023 | 0.796 | 0.744 | 0.926 | 0.998 | 0.823 | 0.862
65 | NCI-H2085 | 0.83 | 0.854 | 0.958 | 0.937 | 0.859 | 0.773
66 | NCI-H2087 | 0.786 | 0.833 | 1.12 | 0.952 | 0.975 | 0.983
67 | NCI-H2126 |  | 0.765 | 0.946 | 0.994 | 0.927 | 0.759
68 | NCI-H2170 | 0.953 | 0.913 | 0.762 | 0.72 | 0.332 | 0.276
69 | NCI-H2228 | 0.902 | 0.857 | 0.823 | 1.04 | 0.863 | 1.14
70 | NCI-H2342 | 0.742 | 0.825 | 0.798 | 0.86 | 0.856 | 
71 | NCI-H2347 | 0.7 | 0.999 | 0.943 | 1.05 | 0.904 | 0.905
72 | NCI-H2405 | 0.674 | 0.83 | 0.971 | 1.01 | 0.905 | 1.04
73 | NCI-H3122 | 0.912 | 0.981 | 0.992 | 0.965 | 1 | 1.03
74 | PC-3 [JPC-3] |  | 1 | 0.991 | 0.977 | 0.755 | 0.46
75 | PC-14 | 0.914 | 0.954 | 0.965 | 0.958 | 0.644 | 0.343
76 | RERF-LC-KJ | 0.992 | 0.88 | 0.905 | 0.826 | 0.737 | 0.861
77 | SK-LU-1 | 0.799 | 0.89 | 1.01 | 1.11 | 1.03 | 0.85
78 | SK-MES-1 | 0.94 | 0.902 | 0.886 | 0.776 | 0.462 | 0.497
79 | SW 900 |  | 0.765 | 0.958 | 0.836 | 0.712 | 
80 | SW 1573 | 0.952 | 0.896 | 0.992 | 1.06 | 0.896 | 1.12
